From patent US20210277428A1, “NOVEL MALONYL-COA BIOSENSOR BASED ON TYPE III […] AND USE THEREOF” (KOREA ADVANCED INSTITUTE OF SCIENCE AND TECHNOLOGY, priority 2018, published 2021)

Tests used:
[1] = test system: C. glutamicum pCES-His-rppA strain; test: RppA malonyl-CoA biosensor characterization with cerulenin in C. glutamicum; format: cell-based, Corynebacterium glutamicum; details: increasing cerulenin concentration
[2] = test system: E. coli BL21(DE3) strain containing the plasmid pTac-5′UTR-Sgr_rppA; test: RppA malonyl-CoA biosensor characterization with cerulenin in E. coli; format: cell-based
Procedure: After construction of a malonyl-CoA biosensor based on S. griseus RppA, the following experiment was performed in order to examine the applicability of the biosensor. First, the signal of the RppA malonyl-CoA biosensor was defined as the absorbance of culture supernatant at 340 nm (FIG. 3D). Generally, for characterizing a biosensor, different concentrations of a target compound has to be added to examine whether an increased signal occur. However, because malonyl-CoA is a substance that cannot pass through the cell membrane, adding malonyl-CoA to medium is meaningless. Thus, cerulenin (Sigma-aldrich, USA) known to block fatty acid biosynthetic pathways was used to indirectly characterize the biosensor (Omura S (1976), Bacteriol Rev 40:681-697.). Cerulenin blocks fatty acid biosynthetic pathways, and thus leads to the accumulation of malonyl-CoA, a fatty acid precursor. Thus, the concentration of malonyl-CoA in E. coli according to addition of different concentrations of cerulenin as described in previous studies was measured (Xu P, Li L, Zhang F, Stephanopoulos G, Koffas M (2014), Proc Natl Acad Sci USA 111:11299-11304). […] The inoculated cells were cultured in an incubator at 30° C. and 220 rpm for 16 hours, and then the growth (OD600) of the cells and the absorbance at 340 nm of the culture supernatant were measured. […]

[3] = test system: P. putida pBBR1-rppA strain; test: RppA malonyl-CoA biosensor characterization with cerulenin in P. putida; format: cell-based, Pseudomonas putida; details: MR-MOPS medium, increasing cerulenin concentration
[4] = test system: E. coli BL21(DE3) strains expressing AaOKS, AaPKS4 and AaPKS5; test: AaOKS, AaPKS4 and AaPKS5 malonyl-CoA biosensor experiments using cerulenin; format: cell-based; details: different concentrations of cerulenin added to the medium

With `C/C=C/C/C=C/CCC(=O)[C@H]1O[C@H]1C(N)=O` [cerulenin] the “normalized production of flaviolin” value [1] was “increased as the cerulenin concentration in the corresponding strain increased”, the normalized signal [1] was “increased as the cerulenin concentration in the corresponding strain increased” and the “normalized signal (absorbance of culture supernatant at 340 nm)” value ([2]; cerulenin 0, 5, 10, 15, 20, 25, 50, and 100 μM, 16 hours, 30° C., compared to the strain that does not express RppA) was “obviously increased as the concentration of cerulenin increased”. For the same compound, the “normalized production of flaviolin” value ([2]; increasing cerulenin concentration, also observed by the naked eyes) was “increased with increasing cerulenin concentration”, the “normalized production of flaviolin” value [3] was “increased as the cerulenin concentration in the corresponding strain increased” and the normalized signal [3] was “increased as the cerulenin concentration in the corresponding strain increased”. The “signal (absorbance at 300 nm of the culture supernatant)” value [4] was “signal generated from each strain increased as the intracellular malonyl-CoA concentration increased”.
